This note sets out measurements from publication doi:10.1101/2020.05.05.078071v1 (biorxiv, 2020).

Assay [1] deals with rNaV1.4 (Rattus norvegicus, UniProt P15390). In words: whole-cell patch clamp, three pulse train. The format is cell-based. Background: Patch clamp records ionic current or voltage across a cell membrane.
Assay [2] concerns the target rNaV1.4 (Rattus norvegicus, UniProt P15390, F1579A). Nature of the assay: whole-cell patch clamp, three pulse train. The format is cell-based.

rNaV1.4 (Rattus norvegicus, UniProt P15390, F1579A), sequence (P15390 whole entry F1579A): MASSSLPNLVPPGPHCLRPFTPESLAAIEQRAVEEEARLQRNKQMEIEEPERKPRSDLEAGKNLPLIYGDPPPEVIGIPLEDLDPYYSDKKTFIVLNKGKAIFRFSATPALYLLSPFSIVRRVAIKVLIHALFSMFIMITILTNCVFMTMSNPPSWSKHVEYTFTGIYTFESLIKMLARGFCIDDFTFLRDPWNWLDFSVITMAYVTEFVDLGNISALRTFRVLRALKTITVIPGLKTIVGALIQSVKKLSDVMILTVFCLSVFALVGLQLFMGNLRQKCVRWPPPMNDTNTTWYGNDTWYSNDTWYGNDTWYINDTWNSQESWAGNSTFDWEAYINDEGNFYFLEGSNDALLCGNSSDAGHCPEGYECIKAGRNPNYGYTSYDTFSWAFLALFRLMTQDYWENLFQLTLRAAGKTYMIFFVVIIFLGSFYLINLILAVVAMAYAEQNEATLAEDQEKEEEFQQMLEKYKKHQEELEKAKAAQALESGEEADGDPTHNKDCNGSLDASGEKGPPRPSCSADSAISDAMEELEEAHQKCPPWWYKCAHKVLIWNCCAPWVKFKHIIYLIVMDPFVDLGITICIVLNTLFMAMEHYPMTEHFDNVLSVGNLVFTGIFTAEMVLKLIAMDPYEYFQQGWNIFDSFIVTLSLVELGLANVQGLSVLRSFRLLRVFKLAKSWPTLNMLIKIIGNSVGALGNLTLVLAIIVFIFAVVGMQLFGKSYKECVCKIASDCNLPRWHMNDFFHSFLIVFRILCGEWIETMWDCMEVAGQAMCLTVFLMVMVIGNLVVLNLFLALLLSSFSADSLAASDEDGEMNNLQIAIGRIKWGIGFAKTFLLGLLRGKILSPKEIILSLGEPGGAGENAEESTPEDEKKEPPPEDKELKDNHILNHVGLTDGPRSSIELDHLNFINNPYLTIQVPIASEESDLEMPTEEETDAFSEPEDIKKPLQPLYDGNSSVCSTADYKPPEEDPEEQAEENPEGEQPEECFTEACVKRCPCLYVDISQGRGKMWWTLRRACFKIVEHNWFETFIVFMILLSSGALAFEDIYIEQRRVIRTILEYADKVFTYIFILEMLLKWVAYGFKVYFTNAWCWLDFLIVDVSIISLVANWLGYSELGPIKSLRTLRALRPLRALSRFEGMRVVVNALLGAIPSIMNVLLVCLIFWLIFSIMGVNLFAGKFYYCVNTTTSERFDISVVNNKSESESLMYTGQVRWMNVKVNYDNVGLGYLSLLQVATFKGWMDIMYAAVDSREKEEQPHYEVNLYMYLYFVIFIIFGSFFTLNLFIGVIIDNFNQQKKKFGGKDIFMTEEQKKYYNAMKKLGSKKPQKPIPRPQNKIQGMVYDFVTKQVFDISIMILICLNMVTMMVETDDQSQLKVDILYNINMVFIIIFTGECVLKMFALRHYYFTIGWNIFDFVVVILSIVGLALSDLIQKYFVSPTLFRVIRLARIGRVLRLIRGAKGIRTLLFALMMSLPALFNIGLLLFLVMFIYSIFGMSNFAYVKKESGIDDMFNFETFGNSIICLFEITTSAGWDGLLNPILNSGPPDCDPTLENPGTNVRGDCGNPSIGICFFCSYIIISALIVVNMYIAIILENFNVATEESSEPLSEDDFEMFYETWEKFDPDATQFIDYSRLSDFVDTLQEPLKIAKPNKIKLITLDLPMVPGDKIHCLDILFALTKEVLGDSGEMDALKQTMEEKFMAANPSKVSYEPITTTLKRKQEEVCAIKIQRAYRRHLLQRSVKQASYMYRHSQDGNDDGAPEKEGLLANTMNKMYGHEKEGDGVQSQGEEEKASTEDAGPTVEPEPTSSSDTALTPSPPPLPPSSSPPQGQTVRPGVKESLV
rNaV1.4 (Rattus norvegicus, UniProt P15390), sequence (P15390 whole entry): as the sequence (P15390 whole entry F1579A) above, with A1579F counted along it

For orientation: IC50 means the concentration needed to halve the response being measured. On to `Nc1nc2ccc(OC(F)(F)F)cc2s1` [riluzole], for which the IC50 at rNaV1.4 [1] is 3.98 ± 1.32 µM; at rNaV1.4 [2], 114 ± 20 µM.
